Data as given in patent US11339110B2, “Efficient crystallization process for preparing ultrapure Treprostinil and crystal prepared therefrom” (CHIROGATE INTERNATIONAL INC., priority 2019, dated 2022).

Experiments:
Type in all cases: physicochemical
[1] = Stability of Treprostinil in ethanol (UPLC tracing of ethyl ester and dimers); settings: 40±1° C.; for Treprostinil / Treprostinil dimer-1 (IT201d1) / Treprostinil dimer-2 (IT201d2) / Treprostinil ethyl ester (IT201e2): 1.00 g in 5 ml ethanol, UPLC
Procedure: (§1) Ultra Performance Liquid Chromatography (UPLC) Analysis: The UPLC spectra were collected on a Waters ACQUITY UPLC instrument. The conditions were shown as the following: The sample is diluted to 1 mg/ml by […] (v/v) acetonitrile/H2O. The column is Waters BEH C18, 1.7 μm, 2.1*150 mm. The mobile phase is 60/40 (v/v) buffer/acetonitrile from 0 to 10 min, gradient changes of buffer/acetonitrile from 60/40 to 5/95 (v/v) (curve 6) from 10 to 20 min, 5/95 (v/v) buffer/acetonitrile from 20 to 25 min, gradient changes of buffer/acetonitrile from 5/95 to 0/100 (v/v) (curve 6) from 25 to 30 min, 0/100 (v/v) buffer/acetonitrile from 30 to 35 min. Buffer solution is pH 3.0 aqueous solution adjusted by trifluoroacetic acid. The flow rate is set as 0.42 ml/min. Column temperature is set as 45° C., sample temperature is set as 25° C. Injection is 1.5 μL. Run time is 35 min. UV detector is set as 210 nm.
1.00 g Treprostinil was dissolved in 5 ml ethanol in a glass vial at room temperature to form a homogenous solution, which was stirred at 40±1° C. oil bath and periodically sampled to UPLC measurement for tracing the formation of Treprostinil ethyl ester and Treprostinil dimers.

[2] = Stability of Treprostinil stored in a glass vial at 40° C. (UPLC tracing of ethyl ester and dimers); settings: 40±1° C.; for Treprostinil / Treprostinil dimer-1 (IT201d1) / Treprostinil dimer-2 (IT201d2): no solvent, glass vial, UPLC
Procedure: as §1
0.01% g Treprostinil was placed in a glass vial and stirred at 40±1° C. oil bath and periodically sampled to UPLC measurement for tracing the formation of Treprostinil ethyl ester and Treprostinil dimers.

[3] = Filterability of Treprostinil crystal (microfiltration, pressure change during filtering); settings: 100 ml sample solution, 25±1° C., 0.22 μm hydrophilic PVDF membrane
Procedure: The filterability of sample solution is numerical estimated by the pressure changes inside the microfiltration assemblies during filtering. The microfiltration assemblies with 47 mm fritted glass, 0.22 μm hydrophilic PVDF filter membrane, 250 ml bottle, PANCHUM VP-900 dry pump, and an external pressure gauge were settled for tracing the pressure changes during filtration. The usage volume of sample solution for filtering was set as 100 ml and the filtering temperature was set as 25±1° C. for comparing the filterability of samples in a similar experimental condition.
Sample of crystalline Form I of anhydrous Treprostinil in ethyl acetate (containing 3% v/v water) was prepared from Example 5, and the concentration is about 0.05 g/ml. Sample of crystalline Form A of anhydrous Treprostinil in acetonitrile was prepared as disclosed by U.S. Pat. No. 9,278,903 Example 12, and the concentration is about 0.02 g/ml. […] The pressure changes of pure ethyl acetate, pure acetonitrile, crystalline Form I of anhydrous Treprostinil in ethyl acetate (containing 3% v/v water), crystalline Form A of anhydrous Treprostinil in acetonitrile, and monohydrated Treprostinil crystal in ethanol/water during filtration were measured and the results am shown in FIG. 10.

CCCCC[C@H](O)CC[C@@H]1[C@H]2Cc3cccc(OCC(=O)O)c3C[C@H]2C[C@H]1O [Treprostinil]
Treprostinil ([1]; time 0 h): 99.88% | Treprostinil dimer-1 (IT201d1) ([1]; time 0 h): 0.04% | Treprostinil dimer-2 (IT201d2) ([1]; time 0 h): 0.06% | Treprostinil ethyl ester (IT201e2) ([1]; time 0 h): 0.02% | Treprostinil ([1]; time 2 h): 99.50% | Treprostinil dimer-1 (IT201d1) ([1]; time 2 h): 0.04% | Treprostinil dimer-2 (IT201d2) ([1]; time 2 h): 0.07% | Treprostinil ethyl ester (IT201e2) ([1]; time 2 h): 0.39% | Treprostinil ([1]; time 4 h): 99.07% | Treprostinil dimer-1 (IT201d1) ([1]; time 4 h): 0.06% | Treprostinil dimer-2 (IT201d2) ([1]; time 4 h): 0.06% | Treprostinil ethyl ester (IT201e2) ([1]; time 4 h): 0.81% | Treprostinil ([1]; time 6 h): 98.68% | Treprostinil dimer-1 (IT201d1) ([1]; time 6 h): 0.07% | Treprostinil dimer-2 (IT201d2) ([1]; time 6 h): 0.07% | Treprostinil ethyl ester (IT201e2) ([1]; time 6 h): 1.18% | Treprostinil ([1]; time 8 h): 98.15% | Treprostinil dimer-1 (IT201d1) ([1]; time 8 h): 0.10% | Treprostinil dimer-2 (IT201d2) ([1]; time 8 h): 0.11% | Treprostinil ethyl ester (IT201e2) ([1]; time 8 h): 1.64% | Treprostinil ([1]; time 10 h): 97.73% | Treprostinil dimer-1 (IT201d1) ([1]; time 10 h): 0.12% | Treprostinil dimer-2 (IT201d2) ([1]; time 10 h): 0.11% | Treprostinil ethyl ester (IT201e2) ([1]; time 10 h): 2.04% | Treprostinil ([1]; time 12 h): 97.41% | Treprostinil dimer-1 (IT201d1) ([1]; time 12 h): 0.13% | Treprostinil dimer-2 (IT201d2) ([1]; time 12 h): 0.09% | Treprostinil ethyl ester (IT201e2) ([1]; time 12 h): 2.37% | formation rate of Treprostinil dimers ([1]; dissolved in ethanol): about 0.01 % per hour | formation rate of Treprostinil ethyl ester ([1]; dissolved in ethanol): about 0.2 % per hour | formation rate of Treprostinil dimers ([2]; Treprostinil stored without solvent): about 0.01 % per hour | Treprostinil ([2]; time 0 h): 99.90% | Treprostinil dimer-1 (IT201d1) ([2]; time 0 h): 0.04% | Treprostinil dimer-2 (IT201d2) ([2]; time 0 h): 0.06% | Treprostinil ([2]; time 2 h): 99.89% | Treprostinil dimer-1 (IT201d1) ([2]; time 2 h): 0.06% | Treprostinil dimer-2 (IT201d2) ([2]; time 2 h): 0.05% | Treprostinil ([2]; time 4 h): 99.88% | Treprostinil dimer-1 (IT201d1) ([2]; time 4 h): 0.06% | Treprostinil dimer-2 (IT201d2) ([2]; time 4 h): 0.06% | Treprostinil ([2]; time 6 h): 99.84% | Treprostinil dimer-1 (IT201d1) ([2]; time 6 h): 0.07% | Treprostinil dimer-2 (IT201d2) ([2]; time 6 h): 0.08% | Treprostinil ([2]; time 8 h): 99.83% | Treprostinil dimer-1 (IT201d1) ([2]; time 8 h): 0.08% | Treprostinil dimer-2 (IT201d2) ([2]; time 8 h): 0.09% | Treprostinil ([2]; time 10 h): 99.79% | Treprostinil dimer-1 (IT201d1) ([2]; time 10 h): 0.09% | Treprostinil dimer-2 (IT201d2) ([2]; time 10 h): 0.12% | Treprostinil ([2]; time 12 h): 99.77% | Treprostinil dimer-1 (IT201d1) ([2]; time 12 h): 0.10% | Treprostinil dimer-2 (IT201d2) ([2]; time 12 h): 0.13% | finish time of filtration ([3]; 47 mm fritted glass): about 92 seconds | solution filtered ([3]; until about 180 seconds): ~80%
